Patent US11246813B2, “Composition for preventing hair loss or promoting hair development, comprising irone as active ingredient” (INDUSTRY-ACADEMIC COOPERATION FOUNDATION, YONSEI UNIVERSITY, priority 2017, dated 2022)

How the values were obtained:
Assay type in all cases: cell-based
[1] = tested on: human hair dermal papilla cells; experiment: MTT assay, cell viability and proliferation in human hair dermal papilla cells
Protocol: Human hair dermal papilla cells were purchased from PromoCell GmbH (Heidelberg, Germany). The human hair dermal papilla cells were cultured in an incubator at 37° C., 5% CO2 using HFDPC medium (PromoCell, Germany) with fetal bovine serum (FBS) and Dulbecco's modified Eagle's medium (DMEM; Gibco BRL, Gaithersburg, Md., USA). Due to the nature of the cells, cells at passages 2 to 5 were used for all experiments. The human hair dermal papilla cells were dispensed into 24-well plates to 1×10^5 cells/well, and then cultured for 24 hours in an incubator at 37° C., 5% CO2 so that the cells are stabilized. Treatment with samples at respective concentrations (0, 10, 20, 50, 100, 200, 400 μg/ml) was performed and culture was performed for 24 hours. Then, treatment with 100 ul of 3-(4,5-dimethylthiazol-2-yl)-2,5-diphenyltetrazolium bromide (MTT; Sigma Aldrich, St. Louis, USA) reagent at a concentration of […] was performed and culture was performed again for 4 hours. After removing the medium, the precipitate (formazan) was dissolved in DMSO and the absorbance was measured at a wavelength of 540 nm. A proliferation rate thereof was evaluated based on the absorbance of a control group containing only DMSO.

VEGF [2] = experiment: VEGF ELISA of culture solution of human hair dermal papilla cells; conditions: 20 μM, 24 hours, vs DMSO
Protocol: (§1) Human hair dermal papilla cells were purchased from PromoCell GmbH (Heidelberg, Germany). The human hair dermal papilla cells were cultured in an incubator at 37° C., 5% CO2 using HFDPC medium (PromoCell, Germany) with fetal bovine serum (FBS) and Dulbecco's modified Eagle's medium (DMEM; Gibco BRL, Gaithersburg, Md., USA). Due to the nature of the cells, cells at passages 2 to 5 were used for all experiments. The human hair dermal papilla cells were dispensed into 12-well plates to 3×10^4 cells/well, and then the culture solutions were treated with alpha-irone at 20 μM. DMSO was used as a negative control group. The alpha-irone-treated culture solutions were collected after 24 hours, and experiments were conducted using human VEGF ELISA Kit (Enzo Life Sciences, NY, USA), human IGF-1 ELISA kit (Enzo Life Sciences, NY, USA), and cAMP complete ELISA kit (Enzo Life Sciences, NY, USA), respectively, according to the manufacturers' protocol.

IGF-1 = IGF-1 ELISA of culture solution of human hair dermal papilla cells; conditions: 20 μM, 24 hours, vs DMSO
Protocol: as §1

cAMP = cAMP ELISA in human hair dermal papilla cells; conditions: 20 μM, 24 hours, vs DMSO
Protocol: as §1

PKA Cα = experiment: Western blot of PKA Cα in human hair dermal papilla cells; conditions: 20 μM
Protocol: (§2) The […] of human hair dermal papilla cells, obtained by performing treatment with alpha-irone at 20 μM and performing culture, was homogenized with a lysis buffer, and then centrifuged at 13,000×g for 20 minutes at 4° C. Protein quantification was performed by Bradford assay. 40 μg of the protein was electrophoresed on 10% SDS polyacrylamide gel and then transferred to nitrocellulose membranes. The protein was allowed to react with each of PKA Cα, β-catenin, β-actin, and GAPDH antibody (Cell Signaling Technology, Danvers, Mass., USA). Each protein's signal was visualized with a chemiluminescent detection system (Amersham), and then the band's thickness was quantified using the Quantity One Analysis Software (Bio-Rad Laboratories).

β-catenin = experiment: Western blot of β-catenin in human hair dermal papilla cells; conditions: 20 μM
Protocol: as §2

LEF = experiment: RT-PCR of LEF mRNA in human hair dermal papilla cells; conditions: 20 μM, 24 hours
Protocol: (§3) In the present invention, in order to identify activity of alpha-irone on human hair dermal papilla cells (DPCs), when the DPCs reached 70% to 80% confluency, treatment with alpha-irone at 20 μM was performed, and then culture was performed under a condition of 5% CO2 and 37° C. 24 hours after the treatment, the cells were collected and total RNA was extracted with Trizol Reagent (Gibco BRL, USA). The total RNA was quantified by absorbance measurement at 260 nm.
(§4) After isolation of RNA, cDNA was synthesized by performing reverse transcription using oligo dT primers and SuperScript reverse transcriptase (GIBCOBRL, Gaithersburg, Md., USA). PCR was performed using, as a template, cDNA obtained through reverse transcription and using, as primers, 5′ and 3′ flanking sequences of the gene's cDNA to be amplified. Here, required primers were obtained by making a request for synthesis with a company specializing in primer manufacturing (BIONEER CORPORATION, Korea) and used. To a mixture obtained by mixing of 5 μl of 10× reaction buffer [100 mM KCL, 20 mM Tris-HCl (pH 8.0), 2.5 mM MgCl2], 4 μl of 10 mM dNTP, and 1 μl each of 0.2 μM sense and antisense primers, were added 2 μl of the completed cDNA reaction mixture and 2.5 unit of Taq polymerase (Takara, Japan). Then, the volume was adjusted with 50 μl of distilled water, and PCR was performed using a PCR instrument. […]

Cyc-D = experiment: RT-PCR of Cyc-D mRNA in human hair dermal papilla cells; conditions: 20 μM, 24 hours
Protocol: as §3, §4

VEGF [3] = experiment: RT-PCR of VEGF mRNA in human hair dermal papilla cells; conditions: 20 μM, 24 hours
Protocol: as §3, §4

IGF = experiment: RT-PCR of IGF-1 mRNA in human hair dermal papilla cells; conditions: 20 μM, 24 hours
Protocol: as §3, §4

CC(=O)/C=C/C1C(C)=CCC(C)C1(C)C (stereo not drawn) [alpha-irone, (E)-4-(2,5,6,6-tetramethylcyclohex-2-en-1-yl)but-3-en-2-one]
cell viability (MTT assay) ([1]; 24 hours culture, up to a concentration of 400 μg/ml, vs DMSO control): did not affect the cell viability
increase of proliferation rate ([1]; alpha-irone 10 μM): 10.6%
increase of proliferation rate ([1]; alpha-irone 20 μM): 37%
increase of proliferation rate ([1]; alpha-irone 50 μM): 28%
increase in concentration of VEGF (VEGF [2]): 27%
increase in concentration of IGF-1 (IGF-1): 18%
increase in cAMP concentration (cAMP): 51%
increase in expression of PKA Cα protein (PKA Cα): 52%
increase in expression of β-catenin protein in the cell nucleus (β-catenin): 38%
increase in mRNA expression of LEF (LEF): 348%
increase in mRNA expression of Cyc-D (Cyc-D): 250%
increase in mRNA expression of VEGF (VEGF [3]): 247%
increase in mRNA expression of IGF (IGF): 217%
